Laboratory results: patent US10053433B2, “Androgen receptor antagonists” (THE REGENTS OF THE UNIVERSITY OF CALIFORNIA, priority 2014, dated 2018)
Like-named read-outs stand apart in the source and are kept apart here.

Assays:
[1] = target: full length AR (Homo sapiens (Human), UniProt P10275); assay: mmTV-luciferase reporter assay, full length AR in HeLa cells; type: cell-based
Description: In order to test the effect of antiandrogens on full length AR, a mmTV-luciferase reporter assay was used. An AR-response element is contained within the mmTV sequence and drives the expression of luciferase. The effect of antiandrogens (competitive antagonists) on this process is measured by quantifying the amount of luciferase activity after 24 hours in the presence of varying concentrations of antiandrogens. From these values, an IC50 for each antagonist is calculated. Experimentally, HeLa cells were maintained in Dulbecco's modified Eagle's medium H-21 4.5 g/L glucose, containing 10% steroid depleted fetal bovine serum, 50 units/mL penicillin. For transfection, (1×10^5) cells per well were plated and incubated overnight. […] Cells were induced with 1 nM DHT and 0.1 nM-30 uM compounds after 3 hrs and then incubated overnight. Cells were collected, and pellets were lysed in 100 μL of 100 mM Tris-HCl (pH 7.5) containing 0.1% Triton X-100. Luciferase and β-galactosidase activities were measured using the Luciferase Assay System (Promega) and Galacto-Light Plus-galactosidase reporter gene assay system (Applied Biosystems), according to the manufacturer's instructions.

[2] = target: AR ligand-binding domain (AR LBD) (Homo sapiens (Human), UniProt P10275); assay: Gal4-luciferase reporter assay, Gal-AR LBD in HeLa cells; type: cell-based
Chain of AR ligand-binding domain (AR LBD) (P10275 669-900): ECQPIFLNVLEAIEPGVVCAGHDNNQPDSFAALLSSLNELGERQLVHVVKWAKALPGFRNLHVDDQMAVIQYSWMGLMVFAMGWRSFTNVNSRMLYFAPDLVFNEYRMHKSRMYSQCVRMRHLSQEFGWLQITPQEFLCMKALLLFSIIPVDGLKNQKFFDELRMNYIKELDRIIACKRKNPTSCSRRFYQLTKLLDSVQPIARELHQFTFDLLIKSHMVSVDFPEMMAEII
Description: In order to test the effect of ligands on the AR ligand-binding domain (AR LBD), a Gal4-luciferase reporter assay was used. Briefly, the AR LBD is expressed as a fusion with the Gal4 transcription factor, which binds to the Gal4 reporter DNA. Upon activation with agonist hormone (DHT), the Gal-AR LBD binds to the Gal4 reporter gene, which in turn drives the transcription (and subsequently translation) of the reporter luciferase. The effect of antiandrogens (competitive antagonists) on this process is measured by quantifying the amount of luciferase activity after 24 hours in the presence of varying concentrations of antiandrogens. From these values, an IC50 for each antagonist is calculated. Experimentally, Hela cells were maintained in Dulbecco's modified Eagle's medium H-21 4.5 g/L glucose, containing 10% steroid depleted fetal bovine serum, 50 units/mL penicillin. For transfection, (1×10^5) cells per well were plated and incubated overnight. […] Cells were induced with 1 nM DHT and 0.1 nM-30 uM test compounds after 3 hr and then incubated over night. Cells were collected, and pellets were lysed in 100 μL of 100 mM Tris-HCl (pH 7.5) containing 0.1% Triton X-100. Luciferase and β-galactosidase activities were measured using the Luciferase Assay System (Promega) and Galacto-Light Plus-galactosidase reporter gene assay system (Applied Biosystems), according to the manufacturer's instructions.

[3] = target: endogenous full length AR (Homo sapiens (Human), UniProt P10275, T878A); assay: mmTV-luciferase reporter assay, endogenous AR in LNCaP cells; type: cell-based; details: 10 nM DHT, read-out: LVCaP data
Chain of endogenous full length AR (P10275 whole entry T878A): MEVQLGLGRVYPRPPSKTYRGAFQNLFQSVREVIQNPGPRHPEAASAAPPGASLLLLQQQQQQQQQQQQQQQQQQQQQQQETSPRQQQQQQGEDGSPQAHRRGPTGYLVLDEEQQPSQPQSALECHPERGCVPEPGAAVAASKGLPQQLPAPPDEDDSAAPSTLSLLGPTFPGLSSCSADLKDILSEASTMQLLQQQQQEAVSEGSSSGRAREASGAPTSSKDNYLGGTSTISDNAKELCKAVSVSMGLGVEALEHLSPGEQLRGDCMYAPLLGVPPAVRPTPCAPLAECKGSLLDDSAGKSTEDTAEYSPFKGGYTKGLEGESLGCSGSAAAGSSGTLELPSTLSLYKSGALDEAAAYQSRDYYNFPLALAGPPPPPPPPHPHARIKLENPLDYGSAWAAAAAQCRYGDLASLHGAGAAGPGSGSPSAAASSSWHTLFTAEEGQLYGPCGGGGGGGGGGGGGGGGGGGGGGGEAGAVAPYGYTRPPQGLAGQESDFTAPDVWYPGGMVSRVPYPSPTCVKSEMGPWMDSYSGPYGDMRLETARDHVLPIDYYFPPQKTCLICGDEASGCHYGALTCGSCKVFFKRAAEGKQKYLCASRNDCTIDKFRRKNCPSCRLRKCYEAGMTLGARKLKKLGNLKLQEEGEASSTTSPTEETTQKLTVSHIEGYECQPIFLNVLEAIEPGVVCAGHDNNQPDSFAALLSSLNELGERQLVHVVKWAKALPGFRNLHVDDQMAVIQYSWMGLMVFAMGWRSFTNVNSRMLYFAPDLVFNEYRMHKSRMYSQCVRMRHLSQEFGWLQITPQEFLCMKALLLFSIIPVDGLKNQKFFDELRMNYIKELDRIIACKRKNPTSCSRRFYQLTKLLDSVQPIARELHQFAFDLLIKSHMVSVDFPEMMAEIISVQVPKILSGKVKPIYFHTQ

[4] = in vivo; cited from earlier work
[5] = full length AR, mmTV-luciferase reporter, HeLa cells, 1 nM DHT, read-out: FL IC50
[6] = in relationship to the experimental casodex data
[7] = Gal-AR LBD, Gal4-luciferase reporter, HeLa cells, 1 nM DHT, read-out: LBD IC50

Chain of full length AR (P10275 other isoform, or with tags, fused parts or gaps): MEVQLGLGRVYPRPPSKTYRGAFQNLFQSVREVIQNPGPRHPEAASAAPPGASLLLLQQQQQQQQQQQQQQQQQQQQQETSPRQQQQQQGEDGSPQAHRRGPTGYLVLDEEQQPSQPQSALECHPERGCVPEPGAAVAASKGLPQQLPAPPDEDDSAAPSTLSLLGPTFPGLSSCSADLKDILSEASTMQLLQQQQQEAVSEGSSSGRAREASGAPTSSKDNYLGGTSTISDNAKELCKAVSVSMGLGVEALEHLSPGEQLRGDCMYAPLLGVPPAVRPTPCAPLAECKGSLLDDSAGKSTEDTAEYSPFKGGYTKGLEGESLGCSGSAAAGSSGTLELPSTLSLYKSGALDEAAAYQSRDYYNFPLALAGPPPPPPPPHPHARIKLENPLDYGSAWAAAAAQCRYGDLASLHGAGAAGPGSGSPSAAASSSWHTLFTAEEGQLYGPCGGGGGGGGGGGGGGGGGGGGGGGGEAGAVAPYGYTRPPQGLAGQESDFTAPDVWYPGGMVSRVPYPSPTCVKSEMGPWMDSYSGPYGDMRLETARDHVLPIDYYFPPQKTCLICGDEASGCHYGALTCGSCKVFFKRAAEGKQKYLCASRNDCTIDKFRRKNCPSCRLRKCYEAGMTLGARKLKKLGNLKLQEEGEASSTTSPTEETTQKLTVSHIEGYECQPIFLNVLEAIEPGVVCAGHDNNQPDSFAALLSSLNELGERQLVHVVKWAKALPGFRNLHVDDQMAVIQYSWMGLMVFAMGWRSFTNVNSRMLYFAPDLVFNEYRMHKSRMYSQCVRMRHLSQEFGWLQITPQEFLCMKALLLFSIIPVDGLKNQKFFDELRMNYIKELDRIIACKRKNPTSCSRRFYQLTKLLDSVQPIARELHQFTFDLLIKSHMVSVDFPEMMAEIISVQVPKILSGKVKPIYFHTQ

| SMILES | IC50 [2] | IC50 [1, 5] | Fold chg (FL) [1, 6] | IC50 [2, 7] | Fold chg (LBD) [2, 6] | Fold change* ([2]; Table 4, relative to CDX) | other results |
| --- | --- | --- | --- | --- | --- | --- | --- |
| C[C@](O)(CS(=O)(=O)c1ccc(F)cc1)C(=O)Nc1cc(C(F)(F)F)c(C#N)cn1 [FC 3.077] | 0.49 ± 0.06 µM |  |  |  |  |  | Fold chg (FL) [1]: 0.33; Fold change* [2]: 0.74; Fold chg (LBD) [2]: 0.74 |
| C=CS(=O)(=O)C(c1ccc(NC(=O)[C@@](C)(O)CS(=O)(=O)c2ccc(F)cc2)cc1C(F)(F)F)S(=O)(=O)C=C [FC 4.025] |  | 1.29 ± 1.29 µM | 0.78 | 0.58 ± 0.11 µM | 0.62 |  |  |
| C=CC(=O)Nc1ccc(NC(=O)[C@@](C)(O)CS(=O)(=O)c2ccc(F)cc2)cc1C(F)(F)F [FC 4.039] |  |  |  | 0.75 ± 0.26 µM | 0.48 |  |  |
| C[C@](O)(CS(=O)(=O)c1ccc(F)cc1)C(=O)Nc1cccc(C(F)(F)F)c1 [FC 4.116] |  | 71.7 µM | 0.014 | 2.53 ± 1.16 µM | 0.14 | 0.14 | IC50 [3]: 0.53 ± 0.27 µM |
| C[C@](O)(CS(=O)(=O)c1ccc(F)cc1)C(=O)Nc1cc(C(F)(F)F)ccn1 [FC 4.125] | 22.4 ± 41.8 µM |  |  |  | 0.016 | 0.016 |  |
| C[C@](O)(CS(=O)(=O)c1ccc(F)cc1)C(=O)Nc1cncc(C(F)(F)F)c1 [FC 4.126] |  | 12.4 ± 14.2 µM | 0.08 | 1.55 ± 0.41 µM | 0.23 | 0.23 | IC50 [3]: 0.11 ± 0.02 µM |
| C[C@](O)(CS(=O)(=O)c1ccc(F)cc1)C(=O)Nc1ccc([N+](=O)[O-])c(C(F)(F)F)c1 [FC 4.127] | 7.26 ± 10.7 µM |  |  |  |  |  | Fold chg (FL) [1]: 0.11; IC50 [1]: 8.74 ± 15.8 µM; Fold change* [2]: 0.05; Fold chg (LBD) [2]: 0.050 |
| CC(O)(CS(=O)(=O)c1ccc(F)cc1)C(=O)Nc1ccc(C#N)c(C(F)(F)F)c1 (stereo not shown) [bicalutamide] |  |  |  |  |  |  | tolerability [4]: well tolerated with very few side effects |
